Measurements published in patent US11400103B2, “Methods of preventing platelet activation” (Vanderbilt University, priority 2015, dated 2022).
Entries after “also recorded” stand apart in the source; their conditions may differ.

How the values were obtained:
[1] = tested on: human washed platelets; experiment: Dilysyl-MDA crosslinks in arachidonic acid-activated human washed platelets (LC/MS/MS); format: cell-based; conditions: preincubation 40 min (ozagrel 100 μM, aspirin 100 μM, SA or 3-MoSA 1.5 mM), then 5 μM arachidonic acid 2 h
Protocol: (§1) In vitro platelet activation: Blood obtained from healthy volunteers was collected into vacuum tubes containing citrate, from a peripheral vein using a 21-gauge needle, and washed platelets were prepared as previously described (7). The platelets were counted with a Coulter counter and diluted with resuspension buffer to a final concentration of […], and aliquoted in volumes corresponding to 500 μl. The aliquots were preincubated for 40 min at room temperature with vehicle, the thromboxane synthase inhibitor ozagrel (100 μM), aspirin (100 μM) or the MDA scavengers, SA (1.5 mM) or 3-MoSA (1.5 mM). Next, arachidonic acid (5 μM) was added and the platelets were incubated for an additional 2 h at room temperature. The reactions were stopped by adding indomethacin (100 μM) and the aldehyde scavenger pyridoxamine (1 mM) for 30 min at 4° C., to inhibit all residual COX-1 activity and to prevent formation of MDA adducts on proteins during the purification process, respectively. An aliquot (5 μl) of sample was used for protein estimations using a BCA assay.
Analysis of Protease-Derived Lysyl-MDA-Lysyl Crosslinks (Dilysyl-MDA Crosslinks) in Washed Platelets by LC/ESI/MS/MS. Samples (around 3 mg of protein) were digested with proteases as previously described for lysyl-lactam adducts (7). In summary, the samples were subsequently heated at 95° C. and allowed to cool at room temperature, before step digestion with pronase (1 mg) at 37° C. for 24 h. Pronase was inactivated by heating samples at 95° C. for 10 min and then cooled to room temperature. Then, 1 μl of […] aminopeptidase was added for every 1 mg of sample protein and incubated at 37° C. for 24 h. Five nanograms of ^13C6-dilysyl-MDA crosslink standard were added to each platelet sample and dilysyl-MDA crosslinks were purified using Oasis cartridge as described above in the section for the preparation of dilysyl-MDA Crosslink standard. The eluate was dried under nitrogen flow to a volume of 100 μl, diluted up to 1 ml with a 0.1% formic acid aqueous solution, and filtered using a 0.22 µm nylon Spin-x centrifuge tube spun at 6,000 rpm for 5 min. Samples were purified by HPLC through the Thermo Scientific Aquasil C18 column. The fractions containing the radioactivity were pooled, concentrated in Oasis HLB cartridge, and then dried under nitrogen to a final volume of 40 μl.
Pooled HPLC fractions concentrated using Oasis were analyzed by LC/MS/MS using an YMC OD-AQ column. […] The gradient was as follows: 0-5 min 100-0% A, 5-7 min 0% A, 7-9 min 0-100% A, 9-15 min 100% A, with a flow rate of 0.2 ml/min. The mass spectrometer was operated in the positive ion mode and the electrospray needle was maintained at 4000 V. Nitrogen was used for both the sheath and auxiliary gas at pressures of 30 and 5 arbitrary units, respectively. […] These settings were used during all experiments, including the validation procedure.

[2] = tested on: RAW264.7 cells; experiment: LG-lysyl adduct formation on histones in RAW264.7 cells; format: cell-based; conditions: 500 μM scavenger 45 min, 20 μM AA 1 h, COX-2 stimulated cells
Protocol: (A). Scavengers were screened in RAW264.7 cells for the ability to decrease LG adduct formation on histones. Scavengers used were glucosamine (GA), 3-methoxysalicylamine (3-MoSA), pentylpyridoxamine (PPM), and 5-ethylsalicylamine (EtSA). Cells were stimulated to express COX-2, pretreated 45 min. with 500 μM scavenger or vehicle (H2O), and given 20 μM AA for 1 h before lysing and extracting histones. Histone proteins were analyzed by LC/ESI/MS/MS for LG-lysyl lactam adduct, n=2.

[3] = tested on: COX-1; experiment: T×B2 in washed platelets by GC/MS as a measure of COX activity; format: cell-based, human; conditions: 5 μM arachidonic acid 2 h; for effect on T×B2 levels: scavenger 1.5 mM; for inhibition at 100 µM: Homo sapiens, Platelet, read-out: inhibition of T×B2 levels
Protocol: as §1
(§2) GC/NICI/MS quantification of thromboxane B2. Serum T×B2 (sT×B2) was measured as an indicator of inhibition of platelet COX activity from blood drawn into non-citrated vacuum tubes. Serum from patients was prepared by incubating the blood at 37° C. for 45 min and then centrifuged at 3,200×g for 15 min. Serum was separated and stored at −80° C. until analysis. For ex vivo experiment, 50 μl of washed platelets were used. sT×B2 was assayed by stable isotope dilution gas chromatography/mass spectrometry (GC/MS) with selective ion monitoring as described previously (10).

[4] = tested on: Human platelets; experiment: Inhibition of formation of LG adducts in platelets; format: cell-based; conditions: 1 mM compound, 10 μM dazoxiben 30 min, arachidonic acid 2 h
Protocol: Human platelets were pre-incubated with 10 μM dazoxiben, a thromboxane synthase inhibitor, and 1 mM of the specified compound or vehicle (control) for 30 min. After incubation, […] arachidonic acid was added for 2 h, and then the proteins were precipitated and digested to single amino acids by step-digestion with proteases. The daughter ions at m/z 332.1 and 84.1 for the lactam were monitored. Values are means±SD (n=9)*P<0.001 vs. control, +P<0.001 vs. 100 μM concentration.

[5] = tested on: human washed platelets; experiment: LC/MS/MS quantification of scavenger-MDA adducts from washed platelets; format: cell-based; conditions: 1.5 mM scavenger 40 min, then 5 μM arachidonic acid 2 h
Protocol: LC/MS/MS quantification of scavengers-MDA adducts from washed platelet. Washed platelets were activated as described above in the section “ex vivo activation”. The scavenger-MDA adducts were extracted three times with 500 μl of ethyl acetate from 50 μl of the reaction mixture, as described above. The extract was dried down, re-suspended in 100 μl of ACN-water (1:1, v/v), vortexed, and filtered through a 0.22-um spin X column. The reactions were analyzed by LC/MS/MS using the column and gradient as described above. The mass spectrometer was operated in the positive ion mode and the spray voltage was maintained at 5000 V. Nitrogen was used for the sheath gas and auxiliary gas at pressures of 30 and 5 arbitrary units, respectively. The optimized skimmer offset was set at 10, capillary temperature was 300° C. and the tube lens voltage for both compounds was set to 49. Selected reaction monitoring of specific transition ions for the precursor ions at m/z 178→106 (SA-MDA adduct) or m/z 208→136 (3-MoSA-MDA adduct) at −15 eV were used.

[6] = Rate of reactivity of the scavengers with MDA in vitro (HPLC); conditions: for formation of MDA adduct of the scavenger relative to MDA-lysine adduct: 37° C., 4 h, MDA ratio 1:1, 0.1 M phosphate pH 7.4, HPLC; for lysine-MDA adducts formation: Lysine and MDA incubated at 37° C. for 4 h in presence of scavenger
Protocol: Determination of the rate of reactivity of the scavengers with MDA in vitro. N^α-Acetyllysine with or without SA, 3-MoSA or 4-HoBA was incubated at 37° C. in the presence of MDA (ratio 1:1) in 0.1 M phosphate, pH 7.4. After 4 h, 10 μl aliquots were diluted to 200 μl with solvent A and analyzed by HPLC. Solvent A consisted to 20% methanol/0.2% formic acid and solvent B was 99.8% methanol/0.2% formic acid. The gradient was as follows: 0-1 min 100% A, 1-7 min 100-0% A, 7-14 min […]. Phenomenex Kinetex column at a flow rate of 0.2 ml/min and the absorbance at 280 nm were used.

[7] = tested on: Human platelets; conditions: previously shown (ref 4); cited from earlier work
[8] = tested on: platelet COX1; experiment: Serum T×B2 in patients with sickle cell disease (GC/MS); format: in vivo, human
Protocol: as §2

[9] = tested on: platelets of patients with SCD; experiment: Platelet dilysyl-MDA crosslinks in patients with sickle cell disease; format: in vivo, human
Text: Sample collection. Written informed consent was obtained from study participants and human blood was obtained following a protocol approved by the Institutional Review Board of Vanderbilt University. Samples were obtained from three different populations: healthy subjects who had no component of the MetSyn or SCD, patients with MetSyn and patients with SCD. Patients with MetSyn were 35-75 year old and fit the MetSyn criteria in accord with the American Heart Association/National Heart, Lung, and Blood Institute criteria (6). Patients with SCD were 25-50 year old and were homozygous sickle (SS) or compound heterozygote with beta-thalassemia (Sβ-thal) phenotype. […]
In vivo platelet activation: Metabolic Syndrome and Sickle Cell patients. […] Accordingly, the levels of dilysyl-MDA crosslinks in platelets were measured in two conditions in which there is evidence of in vivo platelet activation, metabolic syndrome (MetSyn) (8, 9) and sickle cell disease (SCD) (8, 9), and compared to the levels in platelets from healthy subjects isolated from blood collected in the same conditions. […]
Analysis of Protease-Derived Lysyl-MDA-Lysyl Crosslinks (Dilysyl-MDA Crosslinks) in Washed Platelets by LC/ESI/MS/MS. […] The fractions containing the radioactivity were pooled, concentrated in Oasis HLB cartridge, and then dried under nitrogen to a final volume of 40 μl. […]

CC(=O)O.COc1cccc(CN)c1O [3-MoSA, 3-methoxysalicylamine acetate]
levels of dilysyl-MDA crosslinks after platelet activation ([1]; acetate): decreased levels of dilysysl-MDA crosslinks to baseline levels; also recorded: prevent formation of MDA adducts of platelet proteins
effect on LG adducts of histones (nucleus) [2]: inactive
effect on T×B2 levels [3]: neither SA nor 3-MoSA significantly affected T×B2 levels
scavenging of LG adducts in the platelet [4]: active
formation of scavenger-MDA adducts in activated platelets [5]: concomitant appearance of the equivalent scavenger-MDA adduct
formation of MDA adduct of the scavenger relative to MDA-lysine adduct [6]: 15.1 fold
lysine-MDA adducts formation [6]: inhibited

NCc1ccc(O)cc1 [4-HoBA, 4-hydroxybenzylamine, reference compound]
formation of MDA adduct of the scavenger relative to MDA-lysine adduct [6]: 0.6 fold

CCc1ccc(O)c(CN)c1 [EtSA, 5-ethylsalicylamine]
levels of dilysyl-MDA crosslinks after platelet activation [1]: as effective as scavengers as was SA; also recorded: prevent formation of MDA adducts of platelet proteins
effect on LG adducts of histones (nucleus) [2]: blocks LG-lysyl adduct formation on histones
effect on LG adducts of histones (nucleus) ([2]; listed as 5-ethylsalicylamine): effective scavenger

Cc1ccc(O)c(CN)c1 [MeSA, 5-methylsalicylamine]
levels of dilysyl-MDA crosslinks after platelet activation [1]: as effective as scavengers as was SA; also recorded: prevent formation of MDA adducts of platelet proteins

CC(=O)O.NCc1ccccc1O [SA, Salicylamine acetate]
levels of dilysyl-MDA crosslinks after platelet activation ([1]; acetate): decreased levels of dilysysl-MDA crosslinks to baseline levels; also recorded: prevent formation of MDA adducts of platelet proteins
effect on T×B2 levels [3]: neither SA nor 3-MoSA significantly affected T×B2 levels
formation of scavenger-MDA adducts in activated platelets [5]: concomitant appearance of the equivalent scavenger-MDA adduct
formation of levuglandinyl adducts of platelet proteins [7]: prevent formation of levuglandinyl adducts of platelet proteins
formation of MDA adduct of the scavenger relative to MDA-lysine adduct [6]: 9.2 fold
lysine-MDA adducts formation [6]: inhibited

CC(=O)Oc1ccccc1C(=O)O [aspirin, acetylsalicylic acid, reference compound]
levels of dilysyl-MDA crosslinks after platelet activation [1]: reduced levels of the dilysysl-MDA crosslink to baseline levels; also recorded: reduce the dilysyl-MDA crosslinks to the levels in non-activated platelets
inhibition at 100 µM [3]: 96%

O=C(c1ccccc1)c1ccc2n1CCC2C(=O)O (stereo not shown) [ketorolac]
levels of serum T×B2 ([8]; SCD patients during ketorolac treatment (from 219.7±183.1 ng/mL)): 68.9 ± 127.7 ng/mL
reduction in serum T×B2 ([8]; SCD patients, therapeutic use): 69%
levels of platelet dilysyl-MDA crosslinks ([9]; SCD patients treated with ketorolac during admission for vaso-occlusive crisis): 3.15±1.18 ng/mg of protein
reduction of platelet dilysyl-MDA crosslinks ([9]; therapeutic use in SCD patients): reduction of dilysyl-MDA crosslinks to the level found in normal platelets

O=C(O)/C=C/c1ccc(Cn2ccnc2)cc1 [ozagrel, reference compound]
levels of dilysyl-MDA crosslinks after platelet activation [1]: reduced levels of the dilysysl-MDA crosslink to baseline levels; also recorded: reduce the dilysyl-MDA crosslinks to the levels in non-activated platelets
inhibition at 100 µM [3]: 96%

pentylpyridoxamine [reference compound]
effect on LG adducts of histones (nucleus) [2]: only partially effective
scavenging of LG adducts in the platelet [4]: effective scavenger
